Test systems include HL-60(TB) leukemia; NCI-H226 lung; TK-10 renal; SK-MEL-28 melanoma; HT29 colon; MALME-3M melanoma; SK-MEL-2 melanoma; NCI-H23 lung; ACHN renal; 786-0 renal; U251 CNS; HCT-15 colon; KM12 colon; M14 melanoma; SNB-19 CNS; MOLT-4 leukemia; OVCAR-4 ovarian; OVCAR-5 ovarian.
Common to all, as to experiment: DTP human tumour cell line panel, 48 h

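Grown in 96-well plates, cells were treated for 48 hours with each compound at five concentrations. Insufficient inhibition: endpoint recorded as highest concentration tested. The concentration for full growth arrest is given as TGI.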

As for `CN1CCc2ccccc2C(C(=O)c2ccc3c(c2)OCO3)C1=O` (configuration not stated), the TGI in the experiment on HL-60(TB) leukemia, in the experiment with NCI-H226 lung, in the experiment on TK-10 renal, in the experiment with SK-MEL-28 melanoma, in the experiment on HT29 colon and in the experiment on MALME-3M melanoma was over 100 µM in each case. Further, the TGI with SK-MEL-2 melanoma, in the experiment with NCI-H23 lung, in the experiment on ACHN renal, with 786-0 renal, in the experiment on U251 CNS and with HCT-15 colon was over 100 µM throughout. Also, the TGI with KM12 colon, in the experiment with M14 melanoma, with SNB-19 CNS, in the experiment on MOLT-4 leukemia and in the experiment with OVCAR-4 ovarian was over 100 µM in each case.
`CCCCOC/N=C(/N)NC#N`: the concentration for total growth inhibition (TGI) with HL-60(TB) leukemia, in the experiment with NCI-H226 lung, with TK-10 renal, in the experiment on SK-MEL-28 melanoma, in the experiment on HT29 colon and with MALME-3M melanoma was over 100 µM each time. In addition, the TGI with SK-MEL-2 melanoma is over 100 µM; in the experiment on NCI-H23 lung, over 100 µM; in the experiment with ACHN renal, over 100 µM; in the experiment on 786-0 renal, over 100 µM; in the experiment with U251 CNS it was over 100 µM; with HCT-15 colon, 43.8 µM. Besides, the TGI in the experiment with KM12 colon, in the experiment on M14 melanoma, in the experiment with SNB-19 CNS, in the experiment on MOLT-4 leukemia, in the experiment on OVCAR-4 ovarian and in the experiment on OVCAR-5 ovarian was over 100 µM throughout.
Regarding `CCCNCCCCC(NC(C)=O)C(=O)NCc1ccccc1` (configuration not stated), the TGI in the experiment with NCI-H226 lung, with TK-10 renal, in the experiment with SK-MEL-28 melanoma, with HT29 colon, in the experiment with MALME-3M melanoma and in the experiment with SK-MEL-2 melanoma was over 100 µM in each case. The TGI with NCI-H23 lung, in the experiment with ACHN renal, in the experiment with 786-0 renal, in the experiment on U251 CNS, in the experiment on HCT-15 colon and in the experiment with KM12 colon was over 100 µM each time. Also, the TGI in the experiment on M14 melanoma, in the experiment with SNB-19 CNS, with MOLT-4 leukemia, with OVCAR-4 ovarian and in the experiment with OVCAR-5 ovarian was over 100 µM each time.
On to `CCCc1cc(OC(=O)c2c(O)cc(OC)cc2CCC)cc(O)c1C(=O)O`, for which the TGI in the experiment on HL-60(TB) leukemia is 52.7 µM; with TK-10 renal, over 100 µM; with SK-MEL-28 melanoma, 70.6 µM; in the experiment with HT29 colon, over 100 µM; in the experiment on MALME-3M melanoma, 42.3 µM; with SK-MEL-2 melanoma, 47.4 µM. The TGI with NCI-H23 lung was 42.8 µM; in the experiment on ACHN renal it was 80.2 µM; with 786-0 renal, over 100 µM; in the experiment with U251 CNS it was 68.4 µM; in the experiment on KM12 colon, over 100 µM; in the experiment with M14 melanoma, 73.7 µM. Also, the results for the TGI in the experiment with SNB-19 CNS, in the experiment with MOLT-4 leukemia and in the experiment on OVCAR-5 ovarian were over 100 µM, 84.2 µM and over 100 µM, respectively.
As to `Cc1ccc(-c2cc(-c3ccccc3)c(C#N)c(=O)[nH]2)cc1`, the TGI in the experiment on HL-60(TB) leukemia, with NCI-H226 lung, in the experiment on TK-10 renal, with SK-MEL-28 melanoma, with HT29 colon and in the experiment with MALME-3M melanoma was over 100 µM throughout. Further, the TGI in the experiment on NCI-H23 lung, in the experiment on ACHN renal, with 786-0 renal, with U251 CNS, with HCT-15 colon and in the experiment with KM12 colon was over 100 µM each time. Moreover, the TGI in the experiment with M14 melanoma, in the experiment on SNB-19 CNS, with MOLT-4 leukemia, with OVCAR-4 ovarian and with OVCAR-5 ovarian was over 100 µM each time.
Turning to `O=c1oc2c3ccc4ccccc4c3n(CCN3CCCCC3)c2c2ccccc12`, the TGI was over 100 µM with HL-60(TB) leukemia; over 100 µM with TK-10 renal; over 100 µM in the experiment with SK-MEL-28 melanoma; 53.4 µM in the experiment with HT29 colon; over 88.6 µM with MALME-3M melanoma; 65.6 µM in the experiment with SK-MEL-2 melanoma. The TGI in the experiment on NCI-H23 lung was over 69.5 µM; in the experiment on ACHN renal it was over 100 µM; in the experiment with 786-0 renal it was 27.9 µM; in the experiment with U251 CNS, 65 µM; in the experiment on HCT-15 colon, over 100 µM; with KM12 colon it was over 100 µM. Also, the TGI in the experiment on M14 melanoma is over 100 µM; with SNB-19 CNS, over 100 µM; with MOLT-4 leukemia it was over 100 µM; in the experiment with OVCAR-4 ovarian, over 62 µM; in the experiment with OVCAR-5 ovarian, over 100 µM.
Regarding `O=[N+]([O-])c1cccc(Nc2nc(Cl)nc(Cl)n2)c1`, the TGI with NCI-H226 lung, in the experiment on SK-MEL-28 melanoma, in the experiment on HT29 colon, with MALME-3M melanoma, in the experiment on SK-MEL-2 melanoma and in the experiment on NCI-H23 lung was over 100 µM throughout. For the same molecule, the TGI in the experiment on ACHN renal, in the experiment on 786-0 renal, with U251 CNS, in the experiment with HCT-15 colon, in the experiment with KM12 colon and in the experiment with M14 melanoma was over 100 µM each time. Further, the TGI in the experiment with SNB-19 CNS, in the experiment with MOLT-4 leukemia, in the experiment on OVCAR-4 ovarian and in the experiment with OVCAR-5 ovarian was over 100 µM each time.

The record behind these values is PubChem BioAssay (NCI).
